Experimental data published in the supplement of paper PMC4862054.

Tests used:
Settings in all cases: incubation time: 72 h
BT-474 [1] = experiment: normalised response (% of control), CellTox Green; higher = less cell death (100 = DMSO, 0 = benzethonium chloride kill control)
Summary of the method: (§1)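 Normalised signals at single concentrations make up the values. They come from breast cancer cell lines seeded (20 µl suspension) into 384-well plates with compound at 5 concentrations in 10-fold steps over a compound-specific 10,000-fold range, incubated 72 h, and read for CellTox Green fluorescence then CellTiter-Glo luminescence. Each plate was normalised to 0.1 % DMSO (100) and a positive kill control (0).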

BT-549 [2] = experiment: as above
Summary of the method: as §1

CAL-120 [3] = experiment: as above
Summary of the method: as §1

CAL-148 [4] = experiment: as above
Summary of the method: as §1

CAL-51 [5] = experiment: as above
Summary of the method: as §1

CAL-85-1 [6] = experiment: as above
Summary of the method: as §1

DU-4475 [7] = experiment: as above
Summary of the method: as §1

HCC1143 [8] = experiment: as above
Summary of the method: as §1

HCC1599 [9] = experiment: as above
Summary of the method: as §1

HCC1937 [10] = experiment: as above
Summary of the method: as §1

HDQ-P1 [11] = experiment: as above
Summary of the method: as §1

Hs578T [12] = experiment: as above
Summary of the method: as §1

MCF-10A [13] = experiment: as above
Summary of the method: as §1

MDA-MB-231 [14] = experiment: as above
Summary of the method: as §1

MDA-MB-436 [15] = experiment: as above
Summary of the method: as §1

MDA-MB-468 [16] = experiment: as above
Summary of the method: as §1

MFM-223 [17] = experiment: as above
Summary of the method: as §1

BT-474 [18] = experiment: normalised response (% of control), CellTiter-Glo; higher = more viable cells (100 = DMSO, 0 = benzethonium chloride kill control)
Summary of the method: as §1

BT-549 [19] = experiment: as above
Summary of the method: as §1

CAL-120 [20] = experiment: as above
Summary of the method: as §1

CAL-148 [21] = experiment: as above
Summary of the method: as §1

CAL-51 [22] = experiment: as above
Summary of the method: as §1

CAL-85-1 [23] = experiment: as above
Summary of the method: as §1

DU-4475 [24] = experiment: as above
Summary of the method: as §1

HCC1143 [25] = experiment: as above
Summary of the method: as §1

HCC1599 [26] = experiment: as above
Summary of the method: as §1

HCC1937 [27] = experiment: as above
Summary of the method: as §1

HDQ-P1 [28] = experiment: as above
Summary of the method: as §1

Hs578T [29] = experiment: as above
Summary of the method: as §1

MCF-10A [30] = experiment: as above
Summary of the method: as §1

MDA-MB-231 [31] = experiment: as above
Summary of the method: as §1

MDA-MB-436 [32] = experiment: as above
Summary of the method: as §1

MDA-MB-453 [33] = experiment: as above
Summary of the method: as §1

MDA-MB-468 [34] = experiment: as above
Summary of the method: as §1

MFM-223 [35] = experiment: as above
Summary of the method: as §1

SK-BR-3 = experiment: as above
Summary of the method: as §1

MDA-MB-453 [36] = experiment: normalised response (% of control), CellTox Green; higher = less cell death (100 = DMSO, 0 = benzethonium chloride kill control)
Summary of the method: as §1

Row | Compound | normalised response (BT-474 [1]) [%] | normalised response (BT-549 [2]) [%] | normalised response (CAL-120 [3]) [%] | normalised response (CAL-148 [4]) [%] | normalised response (CAL-51 [5]) [%] | normalised response (CAL-85-1 [6]) [%] | normalised response (DU-4475 [7]) [%] | normalised response (HCC1143 [8]) [%] | normalised response (HCC1599 [9]) [%] | normalised response (HCC1937 [10]) [%] | normalised response (HDQ-P1 [11]) [%] | normalised response (Hs578T [12]) [%] | normalised response (MCF-10A [13]) [%] | normalised response (MDA-MB-231 [14]) [%] | normalised response (MDA-MB-436 [15]) [%] | normalised response (MDA-MB-468 [16]) [%] | normalised response (MFM-223 [17]) [%] | normalised response (BT-474 [18]) [%] | normalised response (BT-549 [19]) [%] | normalised response (CAL-120 [20]) [%] | normalised response (CAL-148 [21]) [%] | normalised response (CAL-51 [22]) [%] | normalised response (CAL-85-1 [23]) [%] | normalised response (DU-4475 [24]) [%] | normalised response (HCC1143 [25]) [%] | normalised response (HCC1599 [26]) [%] | normalised response (HCC1937 [27]) [%] | normalised response (HDQ-P1 [28]) [%] | normalised response (Hs578T [29]) [%] | normalised response (MCF-10A [30]) [%] | normalised response (MDA-MB-231 [31]) [%] | normalised response (MDA-MB-436 [32]) [%] | normalised response (MDA-MB-453 [33]) [%] | normalised response (MDA-MB-468 [34]) [%] | normalised response (MFM-223 [35]) [%] | normalised response (SK-BR-3) [%] | normalised response (MDA-MB-453 [36]) [%]
1 | COc1cc2nccc(Oc3ccc(NC(=O)Nc4cc(C)on4)c(Cl)c3)c2cc1OC [Tivozanib] (1000 nM) | 101 | 129 | 96.6 | 104 | 87.7 | 95.5 | 96.5 | 89.3 | 104 | 134 | 92.8 | 93 | 105 | 110 | 70.6 | 138 | 102 | 81.3 | 111 | 93.1 | 103 | 90.8 | 103 | 101 | 95.9 | 92.9 | 95.2 | 98.6 | 104 | 99.2 | 89 | 101 | 87.7 | 89.5 | 60.3 | 88.5 | –
2 | C=CC(=O)Nc1cc2c(Nc3ccc(F)c(Cl)c3)ncnc2cc1OCCCN1CCOCC1 [Canertinib] (1000 nM) | 83.2 | 135 | 97.7 | 100 | 93.2 | 73.3 | 104 | 102 | 114 | – | 97.2 | 109 | 80.4 | 104 | 88.9 | 140 | 106 | 76.8 | 80.1 | 94.2 | 75.3 | 62.2 | 49.2 | 101 | 91.5 | 81.2 | 88.1 | 67.4 | 104 | 32.2 | 78 | 90.5 | 73.6 | 62 | 95 | 27.2 | 102
3 | Nc1ccccc1NC(=O)c1ccc(CNC(=O)OCc2cccnc2)cc1 [Entinostat] (1000 nM) | 99.8 | 114 | 102 | 98.3 | 70.2 | 107 | 99.9 | – | 90.1 | 116 | 109 | 75 | 90.1 | 108 | 86.4 | 65.9 | 90.1 | 92.4 | 62.1 | 97 | 93.7 | 45.2 | 105 | 102 | 98.1 | 83.6 | 87.8 | 93.5 | 86.8 | 142 | 93.2 | 90.5 | 89.8 | 91.4 | 98.2 | 88.8 | 102
4 | C=CC(=O)N1CCC[C@@H](n2nc(-c3ccc(Oc4ccccc4)cc3)c3c(N)ncnc32)C1 [Ibrutinib] (100 nM) | 83.1 | 117 | 103 | 99.6 | 93.6 | 84.1 | 103 | 92.1 | 99.2 | – | 102 | 56.5 | 101 | 111 | 92.1 | 122 | – | 97.5 | 111 | 96.2 | 95.4 | 73.1 | 90.4 | 105 | 100 | 118 | 97.6 | 82.5 | 106 | 91 | 105 | 102 | 72.5 | 93.1 | 107 | 27.5 | 104
5 | Nc1nc(F)nc2c1ncn2[C@@H]1O[C@H](CO)[C@@H](O)[C@@H]1O [Fludarabine] (1000 nM) | 102 | 107 | 101 | 99.5 | 122 | 109 | 105 | 117 | 105 | 88.6 | 111 | 50.2 | 79.7 | 114 | – | 124 | 101 | 110 | 98.2 | 97.8 | 97.2 | 131 | 98.5 | 102 | 106 | 108 | 99.3 | 102 | 102 | 106 | 108 | 102 | 101 | 102 | 107 | 107 | 101
6 | CCN(CC)CCCC(C)Nc1c2ccc(Cl)cc2nc2ccc(OC)cc12 (stereo not drawn) [Mepacrine] (5000 nM) | 97.2 | 57.4 | 101 | 71.8 | 103 | 106 | 102 | – | 98 | 105 | 111 | 84.3 | 99.3 | 81.8 | 99.8 | 89.3 | 97.6 | 104 | 93 | 110 | 88.7 | 113 | 101 | 97.3 | 98 | 101 | 101 | 112 | 104 | 108 | 98.1 | 103 | 102 | 94.4 | 92.5 | 102 | 107
7 | Cc1cnc(NC(=O)Nc2cc(Br)c(C)cc2OC[C@@H]2CNCCO2)cn1 [Rabusertib] (100 nM) | 102 | 123 | 99.9 | 108 | 85.5 | 102 | 106 | 97.3 | 103 | 128 | 80.4 | 55.6 | 105 | 118 | 110 | 128 | – | 103 | 104 | 98.1 | 107 | 72.5 | 99 | 99.1 | 106 | 108 | 92.4 | 105 | 98.7 | 112 | 104 | 113 | 88.1 | 101 | 100 | 109 | 106
8 | CNC(=O)c1cc(Oc2ccc(NC(=O)Nc3cc(C(C)(C)C)nn3-c3ccc4ncccc4c3)c(F)c2)ccn1 [Rebastinib] (100 nM) | 98.6 | 95 | 101 | 84 | 105 | 103 | 103 | 113 | 99.2 | 112 | 94.4 | 98.8 | – | 90.2 | 97.3 | 118 | 95.3 | 97 | 111 | 92.2 | 105 | 120 | 101 | 101 | 110 | 110 | 108 | 114 | 114 | 119 | 90 | 110 | 101 | 113 | 65.3 | 104 | 101
9 | O=C(O)C(=O)O.[NH-][C@@H]1CCCC[C@H]1[NH-].[Pt+2] [Oxaliplatin] (1000 nM) | 95.9 | 121 | 102 | – | 108 | 102 | 98.1 | 101 | 93.9 | 97.7 | 102 | 63.9 | 107 | 98.2 | 95.7 | 157 | 85.6 | 97.7 | 105 | 96.9 | 82.5 | 128 | 95.9 | 94.4 | 95.5 | 100 | 99.5 | 106 | 104 | 96.5 | 97 | 106 | 89.2 | 91.1 | 92.3 | 92.8 | 106
